Where two headings read alike, the source gives them in different places. Some results are limits rather than exact numbers.

Data set [1] has as its system human foreskin fibroblast (HFF). In words: Five-day growth inhibition assay, host cell cytotoxicity. The settings on record: 120 h. As for the experimental part:
(§1) Using published methods[8]^,[19], all of the prepared N-substituted thiazolidinones derivatives were evaluated in vitro for (i) host cell cytotoxicity as well as for the ability to inhibit tachyzoite growth over a period of 5 days (Table 1), for (ii) the ability to inhibit tachyzoite invasion of host cells (Figure 1), and for (iii) the ability to inhibit intracellular tachyzoite replication (Figure 2).
(§2) Compounds were tested for the ability to inhibit in vitro tachyzoite (T. gondii RH-2 F (50839); ATCC, VA) and human foreskin fibroblast (HFF; ATCC) growth for 120 h using a published colorimetric assay[8]^,[19]. Stock solutions of all compounds were 10 mM in DMSO. Serial 0.5 log10 dilutions (320–0.032 μM) of each compound were tested. Data from three separate experiments were analysed and the IC50, IC90, and TD50 calculated using Calcusyn software (Biosoft, Cambridge, UK). The therapeutic index (TI), a measure of specific anti-T. gondii activity, was calculated with the formula shown under Table 1.

The subject of data set [2] is extracellular T. gondii tachyzoites invading HFF host cells. In words: Red/green invasion assay (immunofluorescence). The settings on record: 10 μM, 20 min preincubation, 1 h at 37 °C on HFF, vs vehicle, p ≤ .05. Format: cell-based, Toxoplasma gondii. As to the method:
Figure 1. Invasion assay of ferrocene-based thiazolidinone derivatives (10 μM). VHL: vehicle (DMSO). *Significant inhibition of tachyzoite invasion (p ≤ .05, two-tailed Students’ t test). **Significant inhibition of tachyzoite attachment (p ≤ .05, two-tailed Students’ t test). Data are compiled from results of three independent experiments.
The ferrocene-based derivatives (10 μM) were examined for activity directly on extracellular tachyzoites using an established immunofluorescence-based red/green invasion assay. This assay measures a compound’s ability to impede the parasite-driven host cell entry of tachyzoites through the host cell plasma membrane. Invaded (intracellular) tachyzoites are labelled green while tachyzoites attached to the surface, but unable to invade, are labelled red. A decrease in the number of invaded tachyzoites relative to vehicle [VHL (DMSO)] is indicative of invasion inhibition. A decrease in the number of invaded plus attached tachyzoites relative to same of VHL is indicative of inhibition of attachment. Data shown are mean values ± SEM of three independent experiments.
We next evaluated the ability of the ferrocene-based derivatives to act directly upon extracellular tachyzoites by using a standard red/green invasion assay. This assay interrogates compounds for inhibition of the first step in host cell infection, i.e. invasion and entry into susceptible cells. In this assay (Figure 1), cell-free purified tachyzoites were incubated with a test compound (10 μM), sulfadiazine (10 μM), or VHL for 20 min at room temperature before being added to HFF host cells. After allowing 1 h at 37 °C for the tachyzoites to attach and invade, the cells were processed by immunofluorescent staining. Extracellular/attached tachyzoites were labelled red while intracellular/penetrated tachyzoites were labelled green.

The subject of data set [3] is T. gondii RH-2 F tachyzoites. As to the kind of experiment: Five-day growth inhibition assay (tachyzoite growth, colorimetric). The following applies: 120 h; for IC50: read-out: IC50, median inhibitory concentration, a measure of tachyzoite inhibition; for IC90: read-out: IC90, concentration at which 90% of the tachyzoite growth is inhibited. Format: cell-based, Toxoplasma gondii. As to the method:
as §1, §2
We explored the chemical space and the influence on the biological activity of different groups (substituted aromatic and bicyclic rings) at the lactam NH of the core nucleus. […] In the five-day growth inhibition assay, compounds were added only once, just before addition of tachyzoites, and thus were present for multiple cycles, up to 20, of parasite replication.

For data set [4], the system named is intracellular T. gondii tachyzoites. As to the kind of experiment: Replication assay (immunofluorescence, tachyzoites per parasitophorous vacuole). Format: cell-based, Toxoplasma gondii. The settings on record: 10 μM, added 2 h after infection, 24 h. As to the method:
Figure 2. Replication assay of ferrocene-based thiazolidinone derivatives (10 μM). VHL: vehicle (DMSO); Tz: tachyzoites. Data are compiled from results of three independent experiments.
This assay measures a compound’s ability to inhibit tachyzoite replication over a period of 24 h. The numbers of parasitophorous vacuoles (PV) in experimentally treated infected cells containing 1, 2, 4, or 8 + tachyzoites/vacuole were enumerated, graphed, and compared to those of the VHL-treated infected cells. Data for each size vacuole are shown as the fraction of the total number of vacuoles counted in 10–15 fields. Data shown were compiled from three independent experiments. A decrease in the number of tachyzoites in a vacuole indicates inhibition of replication. Toxoplasma gondii tachyzoites only replicate within the PV inside the host cell with one cycle of replication taking 6–8 h. […] Consequently, a decrease in the number of intravacuolar tachyzoites relative to that of VHL indicates inhibition of replication. Specifically, predominance, i.e. the largest fraction of the total number, of PVs containing 1 or 2 tachyzoites indicates replication inhibition.
Lastly, the replication assay interrogates a compound’s ability to inhibit an established intracellular Toxoplasma infection over the relatively short period of 24 h (3–4 cycles of replication). […] Likewise, allowance of just one cycle of replication results in a majority of PVs containing just two tachyzoites. However, a predominance of PVs containing eight or more tachyzoites indicates absence of inhibitory activity over a 24 h period (see detailed explanation above in Experimental Protocols).

Setting [5] is: HFF cells, top concentration 320 μM.
[6] abbreviates: T. gondii RH-2 F in HFF, three experiments.

For `CC(=NN=C1SCC(=O)N1Cc1ccccc1[N+](=O)[O-])c1ccc[cH-]1.[Fe+2].c1cc[cH-]c1` [Compound 3, 3-(2-Nitrobenzyl)-2-((1-(ferrocen-2-yl)ethylidene)hydrazono)thiazolidin-4-one], the “TD50, median toxicity dose, a measure of cytotoxicity against host cells” value (“TD50, median toxicity dose, a measure” for short) in data set [1] (setting [5]) is ≥320 µM. Besides, the “Inhibition of tachyzoite invasion” value in data set [2] is listed as “notable exceptions”. Also, in data set [3] (setting [6]), the IC50 is 15 µM and the IC90 turned out to be 78 µM.
Consider `CC(=NN=C1SCC(=O)N1Cc1ccc([N+](=O)[O-])cc1)c1ccc[cH-]1.[Fe+2].c1cc[cH-]c1` [Compound 9, 3-(4-Nitrobenzyl)-2-((1-(ferrocen-2-yl)ethylidene)hydrazono)thiazolidin-4-one], for which the “TD50, median toxicity dose, a measure” value in data set [1] (setting [5]) worked out at 217 µM. Moreover, in data set [2], the “Inhibition of tachyzoite attachment” value was “significantly inhibited attachment”. Besides, in data set [3] (setting [6]), the IC50 was 73 µM and the IC90 was 292 µM.
As to `CC(=NN=C1SCC(=O)N1Cc1ccccc1F)c1ccc[cH-]1.[Fe+2].c1cc[cH-]c1` [Compound 12, 3-(2-Fluorobenzyl)-2-((1-(ferrocen-2-yl)ethylidene)hydrazono)thiazolidin-4-one], the “TD50, median toxicity dose, a measure” value in data set [1] (setting [5]) was ≥320 µM. Moreover, in data set [3] (setting [6]), the IC50 stood at 17 µM and the IC90 was determined as 64 µM. Moreover, in data set [4], the “Fraction of PVs containing eight or more tachyzoites” value (“Fraction” below) is on record as 10–18% and the “Inhibition of intracellular tachyzoite replication” value is reported as “modest inhibition”.
Regarding `CC(=NN=C1SCC(=O)N1Cc1cccc(F)c1)c1ccc[cH-]1.[Fe+2].c1cc[cH-]c1` [Compound 15, 3-(3-Fluorobenzyl)-2-((1-(ferrocen-2-yl)ethylidene)hydrazono)thiazolidin-4-one], the “TD50, median toxicity dose, a measure” value in data set [1] (setting [5]) is ≥320 µM. For the same molecule, the “Inhibition of tachyzoite attachment” value in data set [2] is “significantly inhibited attachment”. For the same molecule, in data set [3] (setting [6]), the IC50 stood at 8 µM and the IC90 is 57 µM.
For the molecule `CC(=NN=C1SCC(=O)N1Cc1ccc(F)cc1)c1ccc[cH-]1.[Fe+2].c1cc[cH-]c1` [Compound 18, 3-(4-Fluorobenzyl)-2-((1-(ferrocen-2-yl)ethylidene)hydrazono)thiazolidin-4-one], in data set [1] (setting [5]), the “TD50, median toxicity dose, a measure” value was ≥320 µM. Further, in data set [3] (setting [6]), the IC50 was 6 µM and the IC90 was determined as 16 µM. For the same molecule, in data set [4], the “Fraction” value is listed as 10–18% and the “Inhibition of intracellular tachyzoite replication” value is “modest inhibition”.
For the molecule `CC(=NN=C1SCC(=O)N1Cc1ccc(Cl)cc1)c1ccc[cH-]1.[Fe+2].c1cc[cH-]c1` [Compound 27, 3-(4-Chlorobenzyl)-2-((1-(ferrocen-2-yl)ethylidene)hydrazono)thiazolidin-4-one], in data set [1] (setting [5]), the “TD50, median toxicity dose, a measure” value is ≥320 µM. Besides, in data set [2], the “Inhibition of tachyzoite invasion” value was “notable exceptions”. For the same molecule, in data set [3] (setting [6]), the IC50 was found to be 10 µM and the IC90 amounted to 55 µM. In data set [4], the “Fraction” value is on record as ≤ 1% and the “Inhibition of intracellular tachyzoite replication” value was “fairly strong inhibition”.
`CC(=NN=C1SCC(=O)N1Cc1cccc2ccccc12)c1ccc[cH-]1.[Fe+2].c1cc[cH-]c1` [Compound 30, 3-(Naphthalen-1-ylmethyl)-2-((1-(ferrocen-2-yl)ethylidene)hydrazono)thiazolidin-4-one]: the “TD50, median toxicity dose, a measure” value in data set [1] (setting [5]) was ≥320 µM. Moreover, in data set [2], the “Inhibition of tachyzoite attachment” value was “significantly inhibited attachment”. In addition, in data set [3] (setting [6]), the IC50 amounted to 5 µM and the IC90 worked out at 17 µM.
For `Nc1ccc(S(=O)(=O)Nc2ncccn2)cc1` [Sulfadiazine, reference compound], in data set [1] (human), the “TD50, median toxicity dose, a measure” value amounted to 281 µM. Also, in data set [3] (Toxoplasma gondii), the IC50 was found to be 43 µM and the IC90 was 219 µM. In addition, the “Inhibition of intracellular tachyzoite replication” value in data set [4] is “robust replication inhibition”.

Values taken from PMC6445228, “Synthesis and biological evaluation of anti-Toxoplasma gondii activity of a novel scaffold of thiazolidinone derivatives” (Journal of Enzyme Inhibition and Medicinal Chemistry, 2017).
